The values that follow come from article PMC11284788, “NN1213 – A Potent, Long-Acting, and Selective Analog of Human Amylin” (Journal of Medicinal Chemistry, 2024).

The structures appear in SMILES notation. Read-outs that look alike come from different tables or passages of the source. Numbered stars: 1 amine (or outer) side, 2 acyl side, 3 side chain; on linkers, the order of the positions; unused ones are H or OH. Bridge positions count the residues as written; N and C are the ends. Peptide text beside a SMILES is read from it. * marks the point of attachment. C20 diacid = O=C(O)CCCCCCCCCCCCCCCCCCC(=O)*; γGlu = O=C(O)[C@H](CCC(=O)[*:2])N[*:1]

One test has as its target T1, rat AMY3R (Rattus norvegicus, UniProt P32214+Q9JJ73).
T1 construct: expressed in transfected cells; host or cells: BHK tk-ts 13, transient co-transfection (FuGENE 6)
T1 sequence (P32214 25-479 isoform P32214-2 limits assumed): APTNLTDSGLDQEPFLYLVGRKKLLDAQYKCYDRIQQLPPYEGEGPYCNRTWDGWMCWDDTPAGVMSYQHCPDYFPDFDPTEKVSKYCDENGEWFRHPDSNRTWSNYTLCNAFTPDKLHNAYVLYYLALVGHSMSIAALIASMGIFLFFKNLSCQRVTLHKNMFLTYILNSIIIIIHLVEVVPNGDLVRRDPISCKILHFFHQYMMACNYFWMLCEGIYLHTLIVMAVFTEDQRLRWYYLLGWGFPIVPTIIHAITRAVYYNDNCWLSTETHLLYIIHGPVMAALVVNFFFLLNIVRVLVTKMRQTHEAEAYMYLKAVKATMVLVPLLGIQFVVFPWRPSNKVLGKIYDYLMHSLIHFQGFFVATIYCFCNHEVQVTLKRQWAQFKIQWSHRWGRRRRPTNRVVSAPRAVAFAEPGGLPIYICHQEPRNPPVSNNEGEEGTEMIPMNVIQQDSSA
T1 sequence (Q9JJ73 23-147 partner): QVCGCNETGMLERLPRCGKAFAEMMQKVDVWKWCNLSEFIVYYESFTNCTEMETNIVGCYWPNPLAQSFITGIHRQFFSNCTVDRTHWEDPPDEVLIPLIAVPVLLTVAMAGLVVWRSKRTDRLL
Description: cAMP FlashPlate assay, rat AMY3R. The class given is cell-based. The conditions noted are these: for EC50: cAMP (rat receptor assay); for ratio rCTR/rAMY3R: ratio of cAMP EC50 values.

A further test addresses T2, rCTR (Rattus norvegicus, UniProt P32214).
T2 construct: expressed in transfected cells; host or cells: BHK tk-ts 13, transient (FuGENE 6)
T2 sequence (P32214 25-479 isoform P32214-2 limits assumed): T1 sequence (P32214 25-479 isoform P32214-2 limits assumed)
Description: scintillation proximity binding assay, rCTR membranes. A general note: SPA uses beads or plates that emit light when radiolabelled molecules are held near them.

Test [1] addresses T3, hCTR (Homo sapiens, UniProt P30988).
T3 sequence (P30988 25-474): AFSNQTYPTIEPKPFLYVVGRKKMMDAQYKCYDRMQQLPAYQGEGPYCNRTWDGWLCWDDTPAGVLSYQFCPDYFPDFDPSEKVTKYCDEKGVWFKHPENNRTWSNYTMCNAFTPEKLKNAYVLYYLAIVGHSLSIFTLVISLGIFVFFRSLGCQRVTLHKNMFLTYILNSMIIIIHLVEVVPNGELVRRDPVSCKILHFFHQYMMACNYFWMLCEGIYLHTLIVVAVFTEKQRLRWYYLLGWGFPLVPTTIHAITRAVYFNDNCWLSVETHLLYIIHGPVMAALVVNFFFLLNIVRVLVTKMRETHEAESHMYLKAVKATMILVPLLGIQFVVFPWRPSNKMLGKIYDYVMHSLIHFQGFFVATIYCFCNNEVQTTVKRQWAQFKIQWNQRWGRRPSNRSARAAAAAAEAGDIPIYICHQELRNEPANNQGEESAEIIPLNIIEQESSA
Description: scintillation proximity binding assay, hCTR membranes. More on the design: expressed in transfected cells; host or cells: BHK tk-ts 13, transient (FuGENE 6); membranes for the SPA, whole cells for the species-specific assays.

Test [2] addresses T3, hCTR. Description: cAMP-responsive element luciferase reporter assay, human CTR. The class given is cell-based. The conditions noted are these: luciferase (human receptor assay).
Another test addresses T4, rat CTR (Rattus norvegicus, UniProt P32214).
T4 construct: expressed in transfected cells; host or cells: BHK tk-ts 13, transient (FuGENE 6)
T4 sequence (P32214 25-479 isoform P32214-2 limits assumed): T1 sequence (P32214 25-479 isoform P32214-2 limits assumed)
Description: cAMP FlashPlate assay, rat CTR. The class given is cell-based. Particulars: cAMP (rat receptor assay).

[3] abbreviates: Tables S12 and S14, read-out: rAMY3R pEC50 (converted).
The mark [4] stands for this setting: transiently transfected BHK tk-ts 13 cells, FlashPlate, 30 min room temperature, 2% HSA, read-out: rAMY3R EC50.
Where [5] appears, read: SPA binding assay, Tables S13 and S15, read-out: rCTR pIC50 (converted).
[6] abbreviates: SPA, BHK cell membranes, 125I-Calcitonin 75 pM, 120 min 25 °C, read-out: rCTR IC50.
The mark [7] stands for this setting: SPA binding assay, Tables S13 and S15, read-out: hCTR pIC50 (converted).
[8] abbreviates: SPA, BHK cell membranes, 125I-Calcitonin 75 pM, 120 min 25 °C, read-out: hCTR IC50.
[9] abbreviates: Tables S12 and S14, read-out: hCTR pEC50 (converted).
[10] abbreviates: BHK cells stably expressing hCTR and CRE-luciferase, 3 h, 37 °C, 10% FBS, read-out: hCTR EC50.
The mark [11] stands for this setting: Tables S12 and S14, read-out: rCTR pEC50 (converted).
The mark [12] stands for this setting: transiently transfected BHK tk-ts 13 cells, FlashPlate, 30 min room temperature, 2% HSA, read-out: rCTR EC50.
The mark [13] stands for this setting: SPA binding assay, Tables S13 and S15.

With `CC[C@H](C)[C@H](NC(=O)[C@H](C)NC(=O)CNC(=O)[C@H](Cc1ccccc1)NC(=O)[C@H](CC(N)=O)NC(=O)[C@@H]1CCCN1C(=O)[C@H](CO)NC(=O)[C@H](CO)NC(=O)[C@H](Cc1c[nH]cn1)NC(=O)[C@H](CCCNC(=N)N)NC(=O)[C@H](CC(C)C)NC(=O)[C@H](Cc1ccccc1)NC(=O)[C@H](CC(N)=O)NC(=O)[C@H](C)NC(=O)[C@H](CC(C)C)NC(=O)[C@H](CCCNC(=N)N)NC(=O)[C@H](CCC(N)=O)NC(=O)[C@@H](NC(=O)[C@H](C)NC(=O)[C@@H]1CSSC[C@H](NC(=O)[C@H](CCCCN)NC(=O)CC[C@H](NC(=O)CCCCCCCCCCCCCCCCCCC(=O)O)C(=O)O)C(=O)N[C@@H](CC(N)=O)C(=O)N[C@@H]([C@@H](C)O)C(=O)N[C@@H](C)C(=O)N[C@@H]([C@@H](C)O)C(=O)N1)[C@@H](C)O)C(=O)N1CCC[C@H]1C(=O)N[C@@H](CO)C(=O)N[C@@H](CO)C(=O)N[C@H](C(=O)N1CCC[C@H]1C(=O)N[C@H](C(=O)NCC(=O)N[C@@H](CO)C(=O)N[C@@H](CCC(=O)O)C(=O)N[C@H](C(=O)N[C@@H](Cc1ccc(O)cc1)C(N)=O)[C@@H](C)O)C(C)C)[C@@H](C)O` [Peptide 11] ({C20 diacid-γGlu}-KCNTATCATQRLANFLRHSSPNFGAIPSSTPVGSETY-NH2; disulfide 2-7), the EC50 at rat AMY3R (setting [3]) was 1.29 nM; at rat AMY3R (setting [4]) it was 1.29 nM; on hCTR [2] (setting [9]), 2 nM; at hCTR [2] (setting [10]), 1.99 nM; at rat CTR (setting [11]), 16.2 nM; at rat CTR (setting [12]) it was 16.2 nM. In addition, the “ratio rCTR/rAMY3R” value on rat AMY3R is 13. Besides, the IC50 at rCTR (setting [5]) was 51.3 nM; on rCTR (setting [6]) it was 51.4 nM; on hCTR [1] (setting [7]) it was 12 nM; at hCTR [1] (setting [8]), 11.9 nM.

In the case of `CC[C@H](C)[C@H](NC(=O)[C@H](C)NC(=O)CNC(=O)[C@H](Cc1ccccc1)NC(=O)[C@H](CC(N)=O)NC(=O)[C@@H]1CCCN1C(=O)[C@H](CO)NC(=O)[C@H](CO)NC(=O)[C@H](Cc1c[nH]cn1)NC(=O)[C@H](CCCNC(=N)N)NC(=O)[C@H](CC(C)C)NC(=O)[C@H](Cc1ccccc1)NC(=O)[C@H](CC(N)=O)NC(=O)[C@H](C)NC(=O)[C@H](CC(C)C)NC(=O)[C@H](CCCNC(=N)N)NC(=O)[C@H](CCC(N)=O)NC(=O)[C@@H](NC(=O)[C@H](C)NC(=O)[C@@H]1CSSC[C@H](NC(=O)[C@@H](N)CCCCNC(=O)CC[C@H](NC(=O)CCCCCCCCCCCCCCCCCCC(=O)O)C(=O)O)C(=O)N[C@@H](CC(N)=O)C(=O)N[C@@H]([C@@H](C)O)C(=O)N[C@@H](C)C(=O)N[C@@H]([C@@H](C)O)C(=O)N1)[C@@H](C)O)C(=O)N1CCC[C@H]1C(=O)N[C@@H](CO)C(=O)N[C@@H](CO)C(=O)N[C@H](C(=O)N[C@@H](CC(N)=O)C(=O)N[C@H](C(=O)NCC(=O)N[C@@H](CO)C(=O)N[C@@H](CCCCN)C(=O)N[C@H](C(=O)N[C@@H](Cc1ccc(O)cc1)C(N)=O)[C@@H](C)O)C(C)C)[C@@H](C)O` [Peptide 14], the EC50 was 0.759 nM at rat AMY3R (setting [3]), 0.754 nM on rat AMY3R (setting [4]), 37.2 nM on rat CTR (setting [11]) and 37.2 nM on rat CTR (setting [12]). In addition, on rat AMY3R, the “ratio rCTR/rAMY3R” value is given as 49. Further, the IC50 on rCTR (setting [5]) is 56.2 nM; on rCTR (setting [6]), 55.6 nM; on hCTR [1] (setting [7]), 42.7 nM; on hCTR [1] (setting [8]), 42.3 nM. Besides, the “hCTR pEC50” value at hCTR [2] (Tables S12 and S14) worked out at 8.26.

`CC[C@H](C)[C@H](NC(=O)[C@H](C)NC(=O)CNC(=O)[C@H](Cc1ccccc1)NC(=O)[C@H](CC(N)=O)NC(=O)[C@@H]1CCCN1C(=O)[C@H](CO)NC(=O)[C@H](CO)NC(=O)[C@H](Cc1c[nH]cn1)NC(=O)[C@H](CCCNC(=N)N)NC(=O)[C@H](CC(C)C)NC(=O)[C@H](Cc1ccccc1)NC(=O)[C@H](CC(N)=O)NC(=O)[C@H](C)NC(=O)[C@H](CC(C)C)NC(=O)[C@H](CCCNC(=N)N)NC(=O)[C@H](CCC(N)=O)NC(=O)[C@@H](NC(=O)[C@H](C)NC(=O)[C@@H]1CSSC[C@H](NC(=O)[C@H](CCCCN)NC(=O)CC[C@H](NC(=O)CCCCCCCCCCCCCCCCCCC(=O)O)C(=O)O)C(=O)N[C@@H](CC(N)=O)C(=O)N[C@@H]([C@@H](C)O)C(=O)N[C@@H](C)C(=O)N[C@@H]([C@@H](C)O)C(=O)N1)[C@@H](C)O)C(=O)N1CCC[C@H]1C(=O)N[C@@H](CO)C(=O)N[C@@H](CO)C(=O)N[C@H](C(=O)N[C@@H](CC(N)=O)C(=O)N[C@H](C(=O)NCC(=O)N[C@@H](CO)C(=O)N[C@@H](CCCCN)C(=O)N[C@H](C(=O)N[C@@H](Cc1ccc(O)cc1)C(N)=O)[C@@H](C)O)C(C)C)[C@@H](C)O` [Peptide 13]: the EC50 at rat AMY3R (setting [3]) was 0.603 nM; on rat AMY3R (setting [4]), 0.599 nM; on hCTR [2] (setting [10]) it was 2.61 nM; at rat CTR (setting [11]), 30.2 nM; on rat CTR (setting [12]) it was 30.4 nM. Moreover, at rat AMY3R, the “ratio rCTR/rAMY3R” value came out at 50. The “rCTR pIC50” value on rCTR (setting [13]) was 7.05. Also, the “hCTR pIC50” value on hCTR [1] (setting [13]) came to 7.13. Also, the “hCTR pEC50” value on hCTR [2] (Tables S12 and S14) amounted to 8.58.

Consider `CC[C@H](C)[C@H](NC(=O)[C@H](C)NC(=O)CNC(=O)[C@H](Cc1ccccc1)NC(=O)[C@H](CC(N)=O)NC(=O)[C@@H]1CCCN1C(=O)[C@H](CO)NC(=O)[C@H](CO)NC(=O)[C@H](Cc1c[nH]cn1)NC(=O)[C@H](CCCNC(=N)N)NC(=O)[C@H](CC(C)C)NC(=O)[C@H](Cc1ccccc1)NC(=O)[C@H](CC(N)=O)NC(=O)[C@H](C)NC(=O)[C@H](CC(C)C)NC(=O)[C@H](CCCNC(=N)N)NC(=O)[C@H](CCC(N)=O)NC(=O)[C@@H](NC(=O)[C@H](C)NC(=O)[C@@H]1CSSC[C@H](NC(=O)[C@H](CCCCN)NC(=O)CC[C@H](NC(=O)CCCCCCCCCCCCCCCCCCC(=O)O)C(=O)O)C(=O)N[C@@H](CC(N)=O)C(=O)N[C@@H]([C@@H](C)O)C(=O)N[C@@H](C)C(=O)N[C@@H]([C@@H](C)O)C(=O)N1)[C@@H](C)O)C(=O)N1CCC[C@H]1C(=O)N[C@@H](CO)C(=O)N[C@@H](CO)C(=O)N[C@H](C(=O)N[C@@H](CC(N)=O)C(=O)N[C@H](C(=O)NCC(=O)N[C@@H](Cc1c[nH]cn1)C(=O)N[C@@H](CC(N)=O)C(=O)N[C@H](C(=O)N[C@@H](Cc1ccc(O)cc1)C(N)=O)[C@@H](C)O)C(C)C)[C@@H](C)O` [Peptide 17], for which the EC50 is 0.933 nM at rat AMY3R (setting [3]); 0.926 nM on rat AMY3R (setting [4]); 2.51 nM at hCTR [2] (setting [9]); 2.49 nM on hCTR [2] (setting [10]); 17 nM at rat CTR (setting [11]); 16.8 nM at rat CTR (setting [12]). For the same compound, the “ratio rCTR/rAMY3R” value on rat AMY3R is given as 18. Also, the IC50 on rCTR (setting [5]) is 50.1 nM; on rCTR (setting [6]), 49.8 nM; on hCTR [1] (setting [7]), 14.1 nM; on hCTR [1] (setting [8]), 14.1 nM.
